Reference: US5451599A, “Complex salts of hematoporphyrin and of its derivatives, their synthesis, and therapeutic agent” (Wojskowa Akademia Techniczna im. Jaroslawa Dabrowskiego, priority 1991, dated 1995)

Legend:
[1] = test system: HBT-39/w (breast cancer cells); assay: 48 h incubation with the salts: cell fluorescence, living cells, multiplication coefficient (Table 2); format: cell-based, Human; conditions: 48 hs, 50 mcg/ml
Experimental: (§1) New compounds of formula 1 were tested on cell lines. Use was made of 9 different neoplastic cell lines which were incubated for 48 hs with various new salts of protoporphyrin and with a new salt of the conventionally applied HpD preparation/hematoporphyrin derivatives/obtained according to Lipson et al. All compounds were used in the form of aqueous solutions, at a concentration of 50 mcg/ml. Determination was made of:
(§2) 1/ Cell fluorescence /F/: after 48 hs incubation, the cells were washed away, the intensity of fluorescence was measured in a fluorescence microscope and was expressed on an arbitrary scale of 0-4 scores;
(§3) 2/ Percentage of living cells /P %/ after 48 hs incubation;
(§4) 3/ Cell multiplication coefficient /M/ in the presence of different preparations, expressed as: [formula]

[2] = test system: T-47D (breast cancer cells); assay: 48 h incubation with the salts: cell fluorescence, living cells, multiplication coefficient (Table 3); format: cell-based, Human; conditions: 48 hs, 50 mcg/ml
Experimental: as §1, §2, §3, §4
T-47D breast cancer cells

[3] = test system: KB (oral cavity cancer cells); assay: 48 h incubation with the salts: cell fluorescence, living cells, multiplication coefficient (Table 2); format: cell-based, Human; conditions: 48 hs, 50 mcg/ml
Experimental: as §1, §2, §3, §4
KB oral cavity cancer cells

[4] = test system: HEp-2 (larynx cancer cells); assay: 48 h incubation with the salts: cell fluorescence, living cells, multiplication coefficient (Table 3); format: cell-based, Human; conditions: 48 hs, 50 mcg/ml
Experimental: as §1, §2, §3, §4
Hep-2 larynx cancer cells

[5] = test system: Hela (cervix uteri cancer cells); assay: 48 h incubation with the salts: cell fluorescence, living cells, multiplication coefficient (Table 1); format: cell-based, Human; conditions: 48 hs, 50 mcg/ml
Experimental: as §1, §2, §3, §4

[6] = test system: Mm (Mm5MT/C1, mammary gland cancer cells of C3H-strain mice); assay: 48 h incubation with the salts: cell fluorescence, living cells, multiplication coefficient (Table 3); format: cell-based, Murine; conditions: for Cell fluorescence /F/ / Cell multiplication coefficient /M/ / Percentage of living cells /P %/: Mm, 48 hs, 50 mcg/ml
Experimental: as §1, §2, §3, §4
mammary gland cancer cells of C3H-strain mice

PZ = assay: 48 h incubation with the salts: cell fluorescence, living cells, multiplication coefficient (Table 1); format: cell-based; conditions: 48 hs, 50 mcg/ml
Experimental: as §1, §2, §3, §4

CL = assay: as above; format: cell-based; conditions: 48 hs, 50 mcg/ml
Experimental: as §1, §2, §3, §4

[7] = test system: MA-104 (Rhesus monkey embryo kidney cancer cells); assay: as above; format: cell-based; conditions: 48 hs, 50 mcg/ml
Experimental: as §1, §2, §3, §4

[8] = test system: GR (GRMT/F6, mammary gland cancer cells of GR-strain mice); assay: 48 h incubation with the salts: cell fluorescence, living cells, multiplication coefficient (Table 2); format: cell-based, Murine; conditions: 48 hs, 50 mcg/ml
Experimental: as §1, §2, §3, §4
GRMT/F6 mammary gland cancer cells of GR-strain mice

| Structure (SMILES) | Cell fluorescence /F/ [1] | Cell multiplication coefficient /M/ [1] | Percentage of living cells /P %/ [1] | Cell fluorescence /F/ [2] | Cell multiplication coefficient /M/ [2] | Percentage of living cells /P %/ [2] | Cell multiplication coefficient /M/ [3] | Percentage of living cells /P %/ [3] | Cell fluorescence /F/ [4] | Cell multiplication coefficient /M/ [4] | Percentage of living cells /P %/ [4] | Cell fluorescence /F/ [5] | Cell multiplication coefficient /M/ [5] | Percentage of living cells /P %/ [5] | Cell fluorescence /F/ [6] | Cell multiplication coefficient /M/ [6] | Percentage of living cells /P %/ [6] | Cell fluorescence /F/ (PZ) | Cell multiplication coefficient /M/ (PZ) | Percentage of living cells /P %/ (PZ) | further results |
| --- | --- | --- | --- | --- | --- | --- | --- | --- | --- | --- | --- | --- | --- | --- | --- | --- | --- | --- | --- | --- | --- |
| CSCCC(NC(C)C1=C(C)c2cc3[nH]c(cc4nc(cc5[nH]c(cc1n2)c(C)c5C(C)NC(CCSC)C(=O)O)C(C)=C4CCC(=O)O)c(CCC(=O)O)c3C)C(=O)O.N=C(N)NCCC[C@H](N)C(=O)O.N=C(N)NCCC[C@H](N)C(=O)O (stereo not drawn) [PP/Met/2 /Arg/2, l-arginine di/N-methionyl/-protoporphyrinate] | ++++ | 0,08 | 8% | +++ | 0,10 | 10% | 0,12 | 5% | +++ | 0 | 0% | ++++ | 0,05 | 5% | ++++ | 0,08 | 8% | + | 0,08 | 8% | Cell fluorescence /F/ [3]: ++; Cell fluorescence /F/ (CL): +; Cell multiplication coefficient /M/ (CL): 0; Percentage of living cells /P %/ (CL): 0%; Cell fluorescence /F/ [7]: ++; Cell multiplication coefficient /M/ [7]: 0,33; Percentage of living cells /P %/ [7]: 22%; Cell fluorescence /F/ [8]: ++++; Cell multiplication coefficient /M/ [8]: 0,22; Percentage of living cells /P %/ [8]: 25% |
| CC1=C(CCC(=O)O)c2cc3[nH]c(cc4nc(cc5[nH]c(cc1n2)c(C(C)NC(Cc1c[nH]c2ccccc12)C(=O)O)c5C)C(C(C)NC(Cc1c[nH]c2ccccc12)C(=O)O)=C4C)c(C)c3CCC(=O)O.N=C(N)NCCC[C@H](N)C(=O)O.N=C(N)NCCC[C@H](N)C(=O)O (stereo not drawn) [PP/Trp/2 /Arg/2, l-arginine di/N-tryptophanyl/-protoporphyrinate] | ++++ | 0,11 | 18% | + | 0,13 | 13% | 0,21 | 21% | +++ | 0,15 | 15% | +++ | 0,62 | 62% | +++ | 0,33 | 11% | + | 0,50 | 50% | Cell fluorescence /F/ (CL): -; Cell multiplication coefficient /M/ (CL): 0,50; Percentage of living cells /P %/ (CL): 50%; Cell fluorescence /F/ [7]: +; Cell multiplication coefficient /M/ [7]: 0,25; Percentage of living cells /P %/ [7]: 25%; Cell fluorescence /F/ [8]: +++; Cell multiplication coefficient /M/ [8]: 0,62; Percentage of living cells /P %/ [8]: 62% |
| CC1=C(CCC(=O)O)c2cc3[nH]c(cc4nc(cc5[nH]c(cc1n2)c(C(C)NC(C)C(=O)O)c5C)C(C(C)NC(C)C(=O)O)=C4C)c(C)c3CCC(=O)O.N=C(N)NCCC[C@H](N)C(=O)O.N=C(N)NCCC[C@H](N)C(=O)O (stereo not drawn) [PP/Ala/2 /Arg/2, l-arginine di/N-alanyl/-protoporphyrinate] | ++ | 0,33 | 17% | +++ | 0,82 | 85% | 0 | 0% | ++ | 0,21 | 21% | + | 0,11 | 11% | +++ | 0,84 | 86% | ++ | 0,15 | 15% | Cell fluorescence /F/ [3]: +++; Cell fluorescence /F/ (CL): -; Cell multiplication coefficient /M/ (CL): 0,30; Percentage of living cells /P %/ (CL): 30%; Cell fluorescence /F/ [7]: ++; Cell multiplication coefficient /M/ [7]: 0,50; Percentage of living cells /P %/ [7]: 50%; Cell fluorescence /F/ [8]: +; Cell multiplication coefficient /M/ [8]: 0,50; Percentage of living cells /P %/ [8]: 50% |
| CC1=C(CCC(=O)O)c2cc3[nH]c(cc4nc(cc5[nH]c(cc1n2)c(C(C)NC(CO)C(=O)O)c5C)C(C(C)NC(CO)C(=O)O)=C4C)c(C)c3CCC(=O)O.N=C(N)NCCC[C@H](N)C(=O)O.N=C(N)NCCC[C@H](N)C(=O)O (stereo not drawn) [PP/Ser/2 /Arg/2, l-arginine di/N-seryl/-protoporphyrinate] | ++ | 0,50 | 33% | +++ | 0,60 | 40% | 0 | 0% | + | 0,50 | 25% | ++ | 0,50 | 55% | + | 0,37 | 37% | ++ | 0,02 | 2,5% | Cell fluorescence /F/ [3]: ++; Cell fluorescence /F/ (CL): +; Cell multiplication coefficient /M/ (CL): 0; Percentage of living cells /P %/ (CL): 0%; Cell fluorescence /F/ [7]: -; Cell multiplication coefficient /M/ [7]: 0,16; Percentage of living cells /P %/ [7]: 0%; Cell fluorescence /F/ [8]: +; Cell multiplication coefficient /M/ [8]: 0,12; Percentage of living cells /P %/ [8]: 12% |
| CC1=C(CCC(=O)O)c2cc3[nH]c(cc4nc(cc5[nH]c(cc1n2)c(C(C)NC(Cc1ccccc1)C(=O)O)c5C)C(C(C)NC(Cc1ccccc1)C(=O)O)=C4C)c(C)c3CCC(=O)O.N=C(N)NCCC[C@H](N)C(=O)O.N=C(N)NCCC[C@H](N)C(=O)O (stereo not drawn) [PP/Fen/2 /Arg/2, l-arginine di/N-phenylalanyl/protoporphyrinate] | ++++ | 0,11 | 11% | + | 0,60 | 60% | 0,12 | 12% | ++ | 0,08 | 3% | +++ | 0,14 | 5% | ++++ | 0,37 | 12% | + | 0,08 | 8% | Cell fluorescence /F/ [3]: ++; Cell fluorescence /F/ (CL): ++; Cell multiplication coefficient /M/ (CL): 0; Percentage of living cells /P %/ (CL): 0%; Cell fluorescence /F/ [7]: ++; Cell multiplication coefficient /M/ [7]: 0,35; Percentage of living cells /P %/ [7]: 35%; Cell fluorescence /F/ [8]: +++; Cell multiplication coefficient /M/ [8]: 0; Percentage of living cells /P %/ [8]: 0% |
| CC1=C(CCC(=O)O)c2cc3[nH]c(cc4nc(cc5[nH]c(cc1n2)c(C(C)NC(CCC(=O)O)C(=O)O)c5C)C(C(C)NC(CCC(=O)O)C(=O)O)=C4C)c(C)c3CCC(=O)O.N=C(N)NCCC[C@H](N)C(=O)O.N=C(N)NCCC[C@H](N)C(=O)O (stereo not drawn) [PP/Glu/2 /Arg/2, l-arginine di/N-glutamyl/-protoporphyrinate] | + | 0,73 | 66% | +++ | 0,80 | 49% | 0,08 | 8% | ++++ | 0,08 | 15% | ++ | 0,16 | 33% | +++ | 0,70 | 76% | + | 0,15 | 15% | Cell fluorescence /F/ [3]: ++++; activity in studies of the Mm5MT/C1 cell line (in words) ([6]; mammary gland cancer of C3H mice): least effective against this type of neoplasm; Cell fluorescence /F/ (CL): -; Cell multiplication coefficient /M/ (CL): 0,45; Percentage of living cells /P %/ (CL): 45%; Cell fluorescence /F/ [7]: -; Cell multiplication coefficient /M/ [7]: 0,16; Percentage of living cells /P %/ [7]: 15%; Cell fluorescence /F/ [8]: +; Cell multiplication coefficient /M/ [8]: 0,75; Percentage of living cells /P %/ [8]: 75% |
